Test results published in PMC2192852 (The Journal of Experimental Medicine, 1996).
Where no end group is shown, it is not given here. [ ]: non-standard residue; d: D form. Abu = CC[C@H](N)C(=O)O

Columns and labels:
Assay type in all cases: cell-based
CH27 B cell lymphoma = settings: for Relative Activity (Hb(64-76) arbitrarily assigned 100): Fig. 4, from EC40 in apoptosis assay relative to wild-type peptide; for Induction of apoptosis of CH27: Fig. 5, 3.L2 clone, 24 h
3.L2 TCR [1] = settings: Fig. 3; CH27 prepulsed with 0.1 µM Hb(64-76)
3.L2 TCR [2] = assay: T cell hybridoma agonist assay: IL-2 production by the 3.L2.12 hybridoma; settings: Fig. 6, single agonist assay, representative of at least three experiments

GKKVITAFCEGLK [C72]
Relative Activity (Hb(64-76) arbitrarily assigned 100) (CH27 B cell lymphoma): 2

GKKVITAFDEGLK [D72]
Concentration at which slight inhibition of the 3.L2.12 response was seen (3.L2 TCR [1]): > 100 µM

GKKVITAFEEGLK [E72]
Induction of apoptosis of CH27 (CH27 B cell lymphoma): negative

GKKVITAFGEGLK [G72]
Induction of apoptosis of CH27 (CH27 B cell lymphoma): did not induce any apoptosis

GKKVITAFLEGLK [L72]
Induction of apoptosis of CH27 (CH27 B cell lymphoma): did not induce any apoptosis

GKKVITAFMEGLK [M72]
Concentration at which slight inhibition of the 3.L2.12 response was seen (3.L2 TCR [1]): > 100 µM

GKKVITAFNEGLK [Hb(64-76), reference compound]
Relative Activity (Hb(64-76) arbitrarily assigned 100) (CH27 B cell lymphoma): 100
Concentration at which peptide is active (IL-2 production) (3.L2 TCR [2]): 0.01 µM

GKKVITAFSEGLK [$72]
Induction of apoptosis of CH27 (CH27 B cell lymphoma): did not induce any apoptosis

GKKVITAFTEGLK [T72]
Relative Activity (Hb(64-76) arbitrarily assigned 100) (CH27 B cell lymphoma): 2

GKKVITAFVEGLK [V72]
Relative Activity (Hb(64-76) arbitrarily assigned 100) (CH27 B cell lymphoma): 2

GKKVITAFYEGLK [Y72]
Concentration at which slight inhibition of the 3.L2.12 response was seen (3.L2 TCR [1]): > 100 µM

GKKVITAF[Abu]EGLK [Abu72]
Relative Activity (Hb(64-76) arbitrarily assigned 100) (CH27 B cell lymphoma): 5
